Patent US20050080113A1, “Medicinal compositions” (priority 2001, published 2005)

Row | SMILES | melting point
1 | Cc1cccc(-c2nc(-c3ccccc3Cl)sc2-c2ccnc(NCCc3ccccc3)c2)c1 [D 19-15, N-[4 [2 (2 chlorophenyl)-4 (3 methylphenyl)-1,3 thiazol-5 yl]-2 pyridyl]-N-(2-phenylethyl)amine] | 113 to 114 °C
2 | Cc1cc(C)cc(-c2nc(NC(=O)c3cccnc3)sc2-c2ccncc2)c1 [23-199, N-[4 (3,5 dimethylphenyl)-5 (4 pyridyl)-1,3 thiazol-2-yl]nicotinamide] | 267 to 270 °C
3 | Cc1cccc(-c2nc(-c3ccc(S(C)(=O)=O)cc3)sc2-c2ccnc(N3CCCC3)c2)c1 [H 37-4, 4 (3 methylphenyl)-2 (4-methylsulfonylphenyl)-5 [2 (1 pyrrolidinyl)-4 pyridyl]-1,3-thiazole] | 199 to 201 °C
4 | Cc1cccc(-c2nc(-c3ccc(S(C)(=O)=O)cc3)sc2-c2ccnc(SCc3ccccc3)c2)c1 [D 27, 5 (2 benzylthio-4 pyridyl)-4 (3-methylphenyl)-2 (4 methylsulfonylphenyl)-1,3 thiazole] | 182 to 185 °C
5 | Cc1cccc(-c2nc(NC(=O)Nc3ccccc3)sc2-c2ccnc(NC3CCCCC3)c2)c1 [H 53-2, N-[5 (2 cyclohexylamino-4-pyridyl)-4 (3 methylphenyl)-1,3 thiazol-2 yl]-N′-phenylurea] | 198 to 199 °C
6 | CC(=O)Nc1cc(-c2sc(C(C)=O)nc2-c2cccc(Cl)c2)ccn1 [H 112, N-[4 [2 acetyl-4 (3-chlorophenyl)-1,3 thiazol-5 yl]-2 pyridyl]acetamide] | 180 to 183 °C
7 | CSc1ccc(-c2nc(-c3cccc(C)c3)c(-c3ccnc(NCCCc4ccccc4)c3)s2)cc1 [D 19-19, N-[4-[4-(3-methylphenyl)-2-(4-methylthiophenyl)-1,3-thiazol-5-yl]-2-pyridyl]-N-(3-phenylpropyl)amine] | 106 to 107 °C
8 | Cc1cccc(-c2nc(-c3ccc(F)cc3)sc2-c2ccnc(C)c2)c1 [H 14-4, 2 (4 fluorophenyl)-4 (3-methylphenyl)-5 (2 methyl-4 pyridyl)-1,3 thiazole] | 89 to 91 °C
9 | Cc1cccc(-c2nc(-c3ccc(F)cc3)sc2-c2ccnc(NCc3ccccc3)c2)c1 [D 19-11, N-benzyl-N-[4 [2 (4-fluorophenyl)-4 (3 methylphenyl)-1,3 thiazol-5 yl]-2-pyridyl]amine] | 143 to 146 °C
10 | CSc1ccc(-c2nc(-c3cccc(C)c3)c(-c3ccnc(NCCc4ccccc4)c3)s2)cc1 [D 19-18, N-[4-[4-(3-methylphenyl)-2-(4-methylthiophenyl)-1,3-thiazol-5-yl]-2-pyridyl]-N-(2-phenylethyl)amine] | 137 to 139 °C
11 | CCc1nc(-c2ccccc2)c(-c2ccnc(NC(=O)OC(C)(C)C)c2)s1 [H 79-1, 5 [2 (tert-butoxycarbonylamino)-4 pyridyl]-2 ethyl-4 phenyl-1,3 thiazole] | 154 to 155 °C
12 | Cc1cccc(-c2nc(-c3ccc(S(C)(=O)=O)cc3)sc2-c2ccnc(F)c2)c1 [H 58-4, 5-(2-fluoro-4-pyridyl)-4-(3-methylphenyl)-2-(4-methylsulfonylphenyl)-1,3-thiazole] | 195 to 199 °C
13 | CCCCc1nc(-c2cccc(C)c2)c(-c2ccnc(NC(=O)Cc3ccccc3)c2)s1 [D 15-4, N-[4-[2-butyl-4-(3-methylphenyl)-1,3-thiazol-5-yl]-2-pyridyl]phenylacetamide] | 92 to 93 °C
14 | Cc1cccc(-c2nc(N(C)C(=O)c3cccnc3)sc2-c2ccnc(NC3CCCCC3)c2)c1 [L 65-4, N-methyl-N-[5 (2-cyclohexylamino-4 pyridyl)-4 (3 methylphenyl)-1,3 thiazol-2-yl]nicotinamide] | 135 to 136 °C
15 | CCc1nc(-c2cccc(C(C)C)c2)c(-c2ccnc(N)c2)s1 [H 20-10, 4 [2 ethyl-4 [3 (1-methylethyl)phenyl]-1,3 thiazol-5 yl]-2 pyridylamine] | 80 to 81 °C
